From ChEMBL document CHEMBL4507267 (2021)

Tests used:
[1] = system: Tyrosine-protein kinase ABL1 (Homo sapiens), P00519 [Y253F]; conditions: Compound concentration 1000.0 nM
[2] = molecular target: Tyrosine-protein kinase ABL1 (Homo sapiens) (UniProt P00519); conditions: Compound concentration 1000.0 nM
[3] = molecular target: Tyrosine-protein kinase ABL2 (Homo sapiens) (UniProt P42684); conditions: Compound concentration 1000.0 nM
[4] = molecular target: Activin receptor type-1 (Homo sapiens) (UniProt Q04771); conditions: Compound concentration 1000.0 nM
[5] = molecular target: Activin receptor type-1B (Homo sapiens) (UniProt P36896); conditions: Compound concentration 1000.0 nM
[6] = molecular target: 5'-AMP-activated protein kinase catalytic subunit alpha-2 (Homo sapiens) (UniProt P54646); conditions: Compound concentration 1000.0 nM
[7] = molecular target: Mitotic checkpoint serine/threonine-protein kinase BUB1 (Homo sapiens) (UniProt O43683); conditions: Compound concentration 1000.0 nM
[8] = molecular target: Calcium/calmodulin-dependent protein kinase type 1 (Homo sapiens) (UniProt Q14012); conditions: Compound concentration 1000.0 nM
Sequence of Calcium/calmodulin-dependent protein kinase type 1 (Homo sapiens) (Q14012 whole entry, looked up): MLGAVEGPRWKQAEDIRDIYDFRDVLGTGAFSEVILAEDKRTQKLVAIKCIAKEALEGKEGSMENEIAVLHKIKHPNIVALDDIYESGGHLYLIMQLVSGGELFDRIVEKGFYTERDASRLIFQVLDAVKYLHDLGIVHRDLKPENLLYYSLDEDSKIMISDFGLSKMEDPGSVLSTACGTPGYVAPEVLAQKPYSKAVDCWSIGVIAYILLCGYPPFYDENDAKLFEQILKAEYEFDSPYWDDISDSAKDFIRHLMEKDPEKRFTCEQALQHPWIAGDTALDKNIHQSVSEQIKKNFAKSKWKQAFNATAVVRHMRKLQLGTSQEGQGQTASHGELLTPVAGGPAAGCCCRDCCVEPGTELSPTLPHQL

[9] = molecular target: Calcium/calmodulin-dependent protein kinase type II subunit gamma (Homo sapiens) (UniProt Q13555); conditions: Compound concentration 1000.0 nM
[10] = molecular target: Cyclin-dependent kinase 3 (Homo sapiens) (UniProt Q00526); conditions: Compound concentration 1000.0 nM
[11] = molecular target: Cyclin-dependent kinase 4 (Homo sapiens) (UniProt P11802); conditions: Compound concentration 1000.0 nM
[12] = molecular target: Serine/threonine-protein kinase Chk2 (Homo sapiens) (UniProt O96017); conditions: Compound concentration 1000.0 nM
[13] = molecular target: Dual specificity protein kinase CLK2 (Homo sapiens) (UniProt P49760); conditions: Compound concentration 1000.0 nM
[14] = molecular target: Ephrin type-B receptor 2 (Homo sapiens) (UniProt P29323); conditions: Compound concentration 1000.0 nM
[15] = molecular target: Receptor tyrosine-protein kinase erbB-3 (Homo sapiens) (UniProt P21860); conditions: Compound concentration 1000.0 nM
[16] = molecular target: Fibroblast growth factor receptor 4 (Homo sapiens) (UniProt P22455); conditions: Compound concentration 1000.0 nM
[17] = molecular target: Tyrosine-protein kinase Fyn (Homo sapiens) (UniProt P06241); conditions: Compound concentration 1000.0 nM
[18] = molecular target: Insulin receptor-related protein (Homo sapiens) (UniProt P14616); conditions: Compound concentration 1000.0 nM
[19] = molecular target: Tyrosine-protein kinase ITK/TSK (Homo sapiens) (UniProt Q08881); conditions: Compound concentration 1000.0 nM
[20] = molecular target: Mast/stem cell growth factor receptor Kit (Homo sapiens) (UniProt P10721); conditions: Compound concentration 1000.0 nM
Sequence of Mast/stem cell growth factor receptor Kit (Homo sapiens) (P10721 whole entry): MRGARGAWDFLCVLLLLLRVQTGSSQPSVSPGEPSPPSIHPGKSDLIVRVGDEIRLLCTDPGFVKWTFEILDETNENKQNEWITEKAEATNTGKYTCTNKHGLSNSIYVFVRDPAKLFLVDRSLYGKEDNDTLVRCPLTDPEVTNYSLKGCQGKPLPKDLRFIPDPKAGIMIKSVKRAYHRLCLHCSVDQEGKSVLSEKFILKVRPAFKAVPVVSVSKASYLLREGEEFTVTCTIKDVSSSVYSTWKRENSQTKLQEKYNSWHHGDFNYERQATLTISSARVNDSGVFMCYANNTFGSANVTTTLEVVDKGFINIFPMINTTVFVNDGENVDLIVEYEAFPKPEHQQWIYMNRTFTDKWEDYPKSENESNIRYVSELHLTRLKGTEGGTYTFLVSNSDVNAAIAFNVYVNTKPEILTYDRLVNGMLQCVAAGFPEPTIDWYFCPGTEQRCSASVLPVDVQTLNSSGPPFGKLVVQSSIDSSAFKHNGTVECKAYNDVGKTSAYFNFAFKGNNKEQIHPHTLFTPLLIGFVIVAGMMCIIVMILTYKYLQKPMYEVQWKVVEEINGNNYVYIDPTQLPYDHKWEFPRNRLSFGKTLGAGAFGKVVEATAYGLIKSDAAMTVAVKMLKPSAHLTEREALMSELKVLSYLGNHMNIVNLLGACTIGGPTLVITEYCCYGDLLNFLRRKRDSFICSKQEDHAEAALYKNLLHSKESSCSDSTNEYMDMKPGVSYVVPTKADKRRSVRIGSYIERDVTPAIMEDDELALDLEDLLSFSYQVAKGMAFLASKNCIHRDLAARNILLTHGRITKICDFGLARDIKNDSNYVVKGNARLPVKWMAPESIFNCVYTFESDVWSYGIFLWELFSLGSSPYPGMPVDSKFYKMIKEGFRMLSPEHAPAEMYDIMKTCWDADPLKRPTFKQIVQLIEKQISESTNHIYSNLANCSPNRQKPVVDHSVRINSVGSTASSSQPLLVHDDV

[21] = system: Mast/stem cell growth factor receptor Kit (Homo sapiens), P10721 [V559D,T670I]; conditions: Compound concentration 1000.0 nM
[22] = molecular target: Mitogen-activated protein kinase kinase kinase 4 (Homo sapiens) (UniProt Q9Y6R4); conditions: Compound concentration 1000.0 nM
[23] = molecular target: Mitogen-activated protein kinase kinase kinase kinase 3 (Homo sapiens) (UniProt Q8IVH8); conditions: Compound concentration 1000.0 nM
[24] = molecular target: Dual specificity mitogen-activated protein kinase kinase 3 (Homo sapiens) (UniProt P46734); conditions: Compound concentration 1000.0 nM
[25] = molecular target: Dual specificity mitogen-activated protein kinase kinase 4 (Homo sapiens) (UniProt P45985); conditions: Compound concentration 1000.0 nM
[26] = molecular target: Maternal embryonic leucine zipper kinase (Homo sapiens) (UniProt Q14680); conditions: Compound concentration 1000.0 nM
[27] = molecular target: MAP kinase-interacting serine/threonine-protein kinase 2 (Homo sapiens) (UniProt Q9HBH9); conditions: Compound concentration 1000.0 nM
[28] = molecular target: Myosin-IIIa (Homo sapiens) (UniProt Q8NEV4); conditions: Compound concentration 1000.0 nM
[29] = molecular target: Serine/threonine-protein kinase 38-like (Homo sapiens) (UniProt Q9Y2H1); conditions: Compound concentration 1000.0 nM
Sequence of Serine/threonine-protein kinase 38-like (Homo sapiens) (Q9Y2H1 2-464 limits assumed): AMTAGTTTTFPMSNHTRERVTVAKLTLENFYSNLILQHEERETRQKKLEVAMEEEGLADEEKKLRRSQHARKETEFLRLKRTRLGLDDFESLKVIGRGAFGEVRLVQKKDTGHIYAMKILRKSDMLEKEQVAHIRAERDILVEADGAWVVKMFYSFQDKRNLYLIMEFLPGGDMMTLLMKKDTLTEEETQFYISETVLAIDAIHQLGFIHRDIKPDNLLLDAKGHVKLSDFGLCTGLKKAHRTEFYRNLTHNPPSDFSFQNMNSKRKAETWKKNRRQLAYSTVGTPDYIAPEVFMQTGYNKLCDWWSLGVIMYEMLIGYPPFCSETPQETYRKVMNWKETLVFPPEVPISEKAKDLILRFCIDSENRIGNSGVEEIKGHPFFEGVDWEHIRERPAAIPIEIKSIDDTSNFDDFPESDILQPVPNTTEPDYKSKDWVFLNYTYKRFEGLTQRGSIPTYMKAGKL

[30] = molecular target: Serine/threonine-protein kinase PAK 2 (Homo sapiens) (UniProt Q13177); conditions: Compound concentration 1000.0 nM
Sequence of Serine/threonine-protein kinase PAK 2 (Homo sapiens) (Q13177 whole entry): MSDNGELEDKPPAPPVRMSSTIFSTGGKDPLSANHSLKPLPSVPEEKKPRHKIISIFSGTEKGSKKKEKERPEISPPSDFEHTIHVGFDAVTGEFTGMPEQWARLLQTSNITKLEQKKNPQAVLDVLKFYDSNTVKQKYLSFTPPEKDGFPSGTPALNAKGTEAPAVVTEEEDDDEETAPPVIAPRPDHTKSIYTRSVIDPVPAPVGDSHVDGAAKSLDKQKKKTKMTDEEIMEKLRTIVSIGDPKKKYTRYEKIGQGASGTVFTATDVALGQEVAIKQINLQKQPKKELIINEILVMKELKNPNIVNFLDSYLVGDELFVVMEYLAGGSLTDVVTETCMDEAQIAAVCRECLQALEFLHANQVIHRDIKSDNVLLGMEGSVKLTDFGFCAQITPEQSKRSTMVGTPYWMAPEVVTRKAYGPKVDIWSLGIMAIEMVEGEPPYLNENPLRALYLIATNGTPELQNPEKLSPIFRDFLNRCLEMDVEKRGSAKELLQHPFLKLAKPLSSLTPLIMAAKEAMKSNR

[31] = molecular target: Platelet-derived growth factor receptor alpha (Homo sapiens) (UniProt P16234); conditions: Compound concentration 1000.0 nM
[32] = molecular target: Cyclin-dependent kinase 2 homolog (Plasmodium falciparum (isolate 3D7)) (UniProt P61075); conditions: Compound concentration 1000.0 nM
[33] = molecular target: Phosphorylase b kinase gamma catalytic chain, skeletal muscle/heart isoform (Homo sapiens) (UniProt Q16816); conditions: Compound concentration 1000.0 nM
Sequence of Phosphorylase b kinase gamma catalytic chain, skeletal muscle/heart isoform (Homo sapiens) (Q16816 whole entry, looked up, the tested form may be a part, canonical isoform): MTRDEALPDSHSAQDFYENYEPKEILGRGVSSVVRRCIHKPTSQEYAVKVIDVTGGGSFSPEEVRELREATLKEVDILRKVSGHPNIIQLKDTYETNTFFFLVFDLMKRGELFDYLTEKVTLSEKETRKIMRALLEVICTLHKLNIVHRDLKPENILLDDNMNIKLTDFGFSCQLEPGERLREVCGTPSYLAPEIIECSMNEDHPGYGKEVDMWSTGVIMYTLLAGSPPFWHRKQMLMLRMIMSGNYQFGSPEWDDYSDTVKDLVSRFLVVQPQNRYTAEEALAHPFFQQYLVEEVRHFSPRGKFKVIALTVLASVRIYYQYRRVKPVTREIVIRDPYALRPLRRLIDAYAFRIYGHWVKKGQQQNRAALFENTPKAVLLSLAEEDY

[34] = molecular target: Phosphatidylinositol 4-phosphate 3-kinase C2 domain-containing subunit beta (Homo sapiens) (UniProt O00750); conditions: Compound concentration 1000.0 nM
[35] = system: Phosphatidylinositol 4,5-bisphosphate 3-kinase catalytic subunit alpha isoform (Homo sapiens), P42336 [E545K]; conditions: Compound concentration 1000.0 nM
[36] = system: Phosphatidylinositol 4,5-bisphosphate 3-kinase catalytic subunit alpha isoform (Homo sapiens), P42336 [H1047Y]; conditions: Compound concentration 1000.0 nM
[37] = molecular target: Serine/threonine-protein kinase PLK4 (Homo sapiens) (UniProt O00444); conditions: Compound concentration 1000.0 nM
Sequence of Serine/threonine-protein kinase PLK4 (Homo sapiens) (O00444 whole entry): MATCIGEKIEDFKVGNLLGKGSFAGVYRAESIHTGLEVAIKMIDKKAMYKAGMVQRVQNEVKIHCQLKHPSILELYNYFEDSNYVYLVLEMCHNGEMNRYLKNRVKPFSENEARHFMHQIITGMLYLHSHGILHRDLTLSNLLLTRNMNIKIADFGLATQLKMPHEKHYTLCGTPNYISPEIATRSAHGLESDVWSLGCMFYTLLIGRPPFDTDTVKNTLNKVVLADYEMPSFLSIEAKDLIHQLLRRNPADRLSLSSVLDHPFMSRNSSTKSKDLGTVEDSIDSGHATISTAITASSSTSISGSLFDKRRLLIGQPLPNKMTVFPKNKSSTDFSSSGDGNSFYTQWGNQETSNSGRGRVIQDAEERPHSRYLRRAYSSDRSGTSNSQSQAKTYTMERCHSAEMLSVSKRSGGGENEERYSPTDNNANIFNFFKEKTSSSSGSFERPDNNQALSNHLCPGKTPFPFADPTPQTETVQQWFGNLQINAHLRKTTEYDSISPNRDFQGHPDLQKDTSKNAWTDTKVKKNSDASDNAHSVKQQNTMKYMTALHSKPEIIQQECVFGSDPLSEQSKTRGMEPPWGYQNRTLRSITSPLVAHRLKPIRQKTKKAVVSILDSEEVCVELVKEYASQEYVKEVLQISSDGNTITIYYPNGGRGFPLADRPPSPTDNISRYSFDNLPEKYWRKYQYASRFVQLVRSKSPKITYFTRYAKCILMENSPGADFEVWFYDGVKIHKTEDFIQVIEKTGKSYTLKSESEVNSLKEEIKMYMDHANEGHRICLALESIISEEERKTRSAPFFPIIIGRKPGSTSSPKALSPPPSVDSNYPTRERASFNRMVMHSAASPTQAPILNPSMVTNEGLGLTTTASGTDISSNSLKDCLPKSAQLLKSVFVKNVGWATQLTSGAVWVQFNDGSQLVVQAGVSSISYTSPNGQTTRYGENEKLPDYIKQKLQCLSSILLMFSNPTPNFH

[38] = molecular target: Ribosomal protein S6 kinase alpha-6 (Homo sapiens) (UniProt Q9UK32); conditions: Compound concentration 1000.0 nM
Sequence of Ribosomal protein S6 kinase alpha-6 (Homo sapiens) (Q9UK32 whole entry): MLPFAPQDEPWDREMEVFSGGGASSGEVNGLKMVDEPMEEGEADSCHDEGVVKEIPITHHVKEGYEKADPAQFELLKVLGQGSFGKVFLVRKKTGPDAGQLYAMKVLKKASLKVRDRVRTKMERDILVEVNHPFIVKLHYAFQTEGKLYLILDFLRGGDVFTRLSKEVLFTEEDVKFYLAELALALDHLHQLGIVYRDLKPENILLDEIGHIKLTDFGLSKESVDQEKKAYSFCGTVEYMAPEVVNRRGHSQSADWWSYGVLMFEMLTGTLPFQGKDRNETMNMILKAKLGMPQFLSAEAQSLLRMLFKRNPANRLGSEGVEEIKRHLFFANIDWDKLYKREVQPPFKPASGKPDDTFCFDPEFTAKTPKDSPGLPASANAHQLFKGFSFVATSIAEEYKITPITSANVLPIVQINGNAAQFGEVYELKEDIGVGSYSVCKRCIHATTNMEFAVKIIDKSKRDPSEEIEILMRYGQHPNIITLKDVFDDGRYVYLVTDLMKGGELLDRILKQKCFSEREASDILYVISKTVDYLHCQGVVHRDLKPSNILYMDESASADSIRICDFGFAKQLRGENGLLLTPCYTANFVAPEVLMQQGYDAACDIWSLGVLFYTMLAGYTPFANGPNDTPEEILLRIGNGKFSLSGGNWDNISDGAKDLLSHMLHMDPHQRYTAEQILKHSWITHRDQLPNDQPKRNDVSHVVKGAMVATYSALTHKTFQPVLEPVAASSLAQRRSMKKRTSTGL

[39] = molecular target: Serine/threonine-protein kinase Sgk2 (Homo sapiens) (UniProt Q9HBY8); conditions: Compound concentration 1000.0 nM
[40] = molecular target: Serine/threonine-protein kinase SIK1 (Homo sapiens) (UniProt P57059); conditions: Compound concentration 1000.0 nM
[41] = molecular target: Serine/threonine-protein kinase 36 (Homo sapiens) (UniProt Q9NRP7); conditions: Compound concentration 1000.0 nM
[42] = molecular target: Transient receptor potential cation channel subfamily M member 6 (Homo sapiens) (UniProt Q9BX84); conditions: Compound concentration 1000.0 nM
[43] = molecular target: Sodium-dependent dopamine transporter (Homo sapiens) (UniProt Q01959); conditions: Compound concentration 10.0 uM
[44] = molecular target: Beta-1 adrenergic receptor (Homo sapiens) (UniProt P08588); conditions: Compound concentration 10.0 uM
Sequence of Beta-1 adrenergic receptor (Homo sapiens) (P08588 whole entry, looked up): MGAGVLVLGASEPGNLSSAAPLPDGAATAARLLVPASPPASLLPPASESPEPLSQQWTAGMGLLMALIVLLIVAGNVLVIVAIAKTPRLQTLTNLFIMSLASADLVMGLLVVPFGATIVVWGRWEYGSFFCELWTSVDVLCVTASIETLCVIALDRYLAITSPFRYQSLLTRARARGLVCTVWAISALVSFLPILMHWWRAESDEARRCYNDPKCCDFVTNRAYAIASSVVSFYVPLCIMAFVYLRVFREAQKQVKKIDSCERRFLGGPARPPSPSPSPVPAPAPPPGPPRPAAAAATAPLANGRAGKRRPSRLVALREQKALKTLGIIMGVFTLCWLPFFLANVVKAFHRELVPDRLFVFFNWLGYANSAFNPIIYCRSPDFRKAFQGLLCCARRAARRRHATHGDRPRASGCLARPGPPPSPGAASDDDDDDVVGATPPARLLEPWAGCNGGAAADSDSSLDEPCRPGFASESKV

Cc1c(NC(=O)c2cc(C(N)=O)nc3cc(F)ccc23)c(C(F)(F)F)nn1Cc1ccc(C(C)(C)C)cc1 [BAY-588]
inactive: residual activity [1] 100% | residual activity [2] 100% | residual activity [3] 87% | residual activity [4] 100% | residual activity [5] 80% | residual activity [6] 100% | residual activity [7] 100% | residual activity [8] 82% | residual activity [9] 82% | residual activity [10] 100% | residual activity [11] 100% | residual activity [12] 99% | residual activity [13] 76% | residual activity [14] 83% | residual activity [15] 94% | residual activity [16] 100% | residual activity [17] 100% | residual activity [18] 96% | residual activity [19] 95% | residual activity [20] 99% | residual activity [21] 100% | residual activity [22] 100% | residual activity [23] 98% | residual activity [24] 90% | residual activity [25] 100% | residual activity [26] 100% | residual activity [27] 100% | residual activity [28] 100% | residual activity [29] 89% | residual activity [30] 85% | residual activity [31] 100% | residual activity [32] 100% | residual activity [33] 100% | residual activity [34] 86% | residual activity [35] 100% | residual activity [36] 89% | residual activity [37] 100% | residual activity [38] 100% | residual activity [39] 100% | residual activity [40] 87% | residual activity [41] 97% | residual activity [42] 100% | inhibition [43] 14.7% | inhibition [44] 21.2%

Cc1c(NC(=O)c2cc(C(N)=O)nc3cc(F)ccc23)c(C(F)(F)F)nn1Cc1ccc(C#N)cc1 [BAY-876]
inactive: residual activity [1] 80% | residual activity [2] 78% | residual activity [3] 74% | residual activity [4] 87% | residual activity [5] 80% | residual activity [6] 100% | residual activity [7] 88% | residual activity [8] 100% | residual activity [9] 86% | residual activity [10] 95% | residual activity [11] 100% | residual activity [12] 73% | residual activity [13] 89% | residual activity [14] 100% | residual activity [15] 92% | residual activity [16] 100% | residual activity [17] 94% | residual activity [18] 92% | residual activity [19] 78% | residual activity [20] 95% | residual activity [21] 89% | residual activity [22] 97% | residual activity [23] 99% | residual activity [24] 88% | residual activity [25] 86% | residual activity [26] 90% | residual activity [27] 92% | residual activity [28] 91% | residual activity [29] 100% | residual activity [30] 88% | residual activity [31] 73% | residual activity [32] 91% | residual activity [33] 100% | residual activity [34] 81% | residual activity [35] 73% | residual activity [36] 86% | residual activity [37] 100% | residual activity [38] 66% | residual activity [39] 80% | residual activity [40] 100% | residual activity [41] 100% | residual activity [42] 87% | inhibition [43] 8.22% | inhibition [44] 28.5%
